Test results as given in the supplement of paper PMC10307832.

What was measured:
Experiment in all cases: relative viability (nuclei count vs DMSO), 5 days (fraction); higher = more cells survive
Adavosertib + OSI-027 = compound: C=CCn1c(=O)c2cnc(Nc3ccc(N4CCN(C)CC4)cc3)nc2n1-c1cccc(C(C)(C)O)n1 [Adavosertib] + COc1cccc2cc(-c3nc([C@H]4CC[C@H](C(=O)O)CC4)n4ncnc(N)c34)[nH]c12 [OSI-027] (partner 0.5 µM)
Method in brief: (§1)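 Five library-drug doses in √10 steps were combined with a fixed anchor-drug dose, or a single drug was given alone, by pin tool to lung cancer cell lines in 1536-well plates the day after seeding. Nuclei were stained and counted after 5 days. Relative viability is the nuclei count in treated wells over that in vehicle wells, taken as the median of duplicate plates.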

Nelarabine + Lapatinib = compound: COc1nc(N)nc2c1ncn2[C@@H]1O[C@H](CO)[C@@H](O)[C@@H]1O [Nelarabine] + CS(=O)(=O)CCNCc1ccc(-c2ccc3ncnc(Nc4ccc(OCc5cccc(F)c5)c(Cl)c4)c3c2)o1 [Lapatinib] (partner 2 µM)
Method in brief: as §1

Nelarabine + Dasatinib = compound: COc1nc(N)nc2c1ncn2[C@@H]1O[C@H](CO)[C@@H](O)[C@@H]1O [Nelarabine] + Cc1nc(Nc2ncc(C(=O)Nc3c(C)cccc3Cl)s2)cc(N2CCN(CCO)CC2)n1 [Dasatinib] (partner 0.075 µM)
Method in brief: as §1

Adavosertib + Pictilisib = compound: C=CCn1c(=O)c2cnc(Nc3ccc(N4CCN(C)CC4)cc3)nc2n1-c1cccc(C(C)(C)O)n1 [Adavosertib] + CS(=O)(=O)N1CCN(Cc2cc3nc(-c4cccc5[nH]ncc45)nc(N4CCOCC4)c3s2)CC1 [Pictilisib] (partner 1 µM)
Method in brief: as §1

Cell Line	relative viability (Adavosertib + OSI-027; first compound 0.01 µM)	relative viability (Adavosertib + OSI-027; first compound 0.03162 µM)	relative viability (Adavosertib + OSI-027; first compound 0.1 µM)	relative viability (Adavosertib + OSI-027; first compound 0.3162 µM)	relative viability (Nelarabine + Lapatinib; first compound 0.01 µM)	relative viability (Nelarabine + Lapatinib; first compound 0.03162 µM)	relative viability (Nelarabine + Lapatinib; first compound 0.1 µM)	relative viability (Nelarabine + Lapatinib; first compound 0.3162 µM)	relative viability (Nelarabine + Lapatinib; first compound 1 µM)	relative viability (Nelarabine + Dasatinib; first compound 0.01 µM)	relative viability (Nelarabine + Dasatinib; first compound 0.03162 µM)	relative viability (Nelarabine + Dasatinib; first compound 0.1 µM)	relative viability (Nelarabine + Dasatinib; first compound 0.3162 µM)	relative viability (Nelarabine + Dasatinib; first compound 1 µM)	relative viability (Adavosertib + Pictilisib; first compound 0.01 µM)	relative viability (Adavosertib + Pictilisib; first compound 0.03162 µM)	relative viability (Adavosertib + Pictilisib; first compound 0.1 µM)	relative viability (Adavosertib + Pictilisib; first compound 0.3162 µM)
LXF-289	0.809	0.678	0.721	0.938	0.97	0.883	0.884	0.941	0.903	0.156	0.218	0.146	0.202	0.196	0.786	0.746	0.782	0.788
NCI-H23	0.604	0.631	0.553	0.327	1.5	1.1	1.06	1.17	1.18	1.01	0.838	0.588	0.927	0.819	0.504	0.51	0.49	0.236
NCI-H1975	0.733	0.644	0.606	0.493	1.27	0.958	0.92	1.11	0.982	0.431	0.343	0.316	0.434	0.462	0.267	0.279	0.261	0.19
NCI-H3122	0.972	0.914	1.07	1.06	1.08	0.891	–	1.08	1.01	1.08	0.661	–	0.81	0.948	0.584	0.606	0.72	0.613
NCI-H838	0.425	0.346	0.391	0.388	1.38	1.07	0.934	1.16	1.14	0.276	0.217	0.225	0.321	0.374	0.446	0.411	0.449	0.485
H3255	0.506	0.654	0.584	0.539	0.248	0.267	0.226	0.235	0.201	–	0.427	0.367	0.345	0.309	0.502	0.452	0.447	0.402
NCI-H2085	0.857	0.808	0.689	0.87	0.889	0.804	0.74	0.754	0.835	0.231	0.26	0.177	0.192	0.199	0.491	0.451	0.41	0.519
NCI-H1355	0.396	0.387	0.364	0.355	1.14	0.7	0.929	0.993	1.07	0.849	0.573	0.564	0.744	0.706	0.476	0.404	0.45	0.378
SK-MES-1	0.681	0.576	0.428	0.198	0.432	0.544	0.456	0.563	0.555	0.385	0.263	0.172	0.324	0.301	0.307	0.343	0.321	0.213
NCI-H1755	0.662	0.731	0.754	0.666	1.27	0.937	1.09	1.29	1.1	0.457	0.349	0.135	0.506	0.479	0.433	0.451	0.4	0.326
NCI-H650	0.476	0.606	0.526	0.446	0.97	0.842	0.929	1.07	0.887	0.501	0.48	0.417	0.51	0.468	0.926	1.04	1.05	0.805
COR-L 105	0.598	0.677	0.558	0.503	0.362	0.306	0.374	0.285	0.368	0.339	0.402	0.259	0.351	0.319	0.415	0.384	0.356	0.393
BEN	0.293	0.333	0.297	0.273	0.905	0.69	0.941	0.684	0.778	0.296	0.308	0.353	0.386	0.298	0.575	0.682	0.587	0.558
NCI-H322M	0.621	0.547	0.451	0.312	0.653	0.581	0.529	0.604	0.602	0.268	0.252	0.231	0.273	0.246	–	0.521	0.504	0.421
HCC-366	0.964	1.02	0.897	0.889	1.46	0.952	1.23	1.2	1.17	0.907	0.71	0.588	0.79	0.661	0.155	0.143	0.217	0.172
NCI-H596	0.784	0.914	0.752	0.732	1.15	1.13	1.27	0.892	1.07	0.752	0.571	0.488	0.581	0.666	0.338	0.379	0.419	0.348
EPLC-272H	0.31	0.279	0.242	0.208	1.12	0.798	0.976	1.02	0.86	0.323	0.361	0.129	0.401	0.29	0.277	0.414	0.303	0.295
NCI-H647	0.635	0.609	0.569	0.26	1.37	0.807	1.11	1.34	1.14	0.152	0.252	0.136	0.183	0.261	0.453	0.471	0.405	0.318
